Laboratory results from patent US20050113292A1 (priority 2003, published 2005).
pIC50: −log10 of the molar value.

Key:
M-tropic (BAL) HIV-1 = settings: M-tropic (BAL)
T-tropic (R8) HIV-1 = settings: T-tropic (R8)
[1] = tested on: HIV-1 mediated cell-cell fusion (R8 virus); settings: mediated cell-cell fusion (R8 virus)

Structure (SMILES) | pIC50 (M-tropic (BAL) HIV-1) | pIC50 (T-tropic (R8) HIV-1) | pIC50 [1]
CC(C)C[C@H](NC(=O)[C@H](CO)NC(=O)[C@H](C)NC(=O)[C@H](Cc1c[nH]c2ccccc12)NC(=O)[C@H](CCCCN)NC(=O)[C@H](CC(=O)O)NC(=O)[C@H](CC(C)C)NC(=O)[C@H](CCC(=O)O)NC(=O)[C@H](CC(C)C)NC(=O)[C@@H]1CSC(C(=O)NCCCC[C@H](NC(=O)CCNC(=O)C2N[C@H](C(=O)N[C@@H](CC(C)C)C(=O)N[C@@H](CCC(=O)O)C(=O)N[C@@H](CC(C)C)C(=O)N[C@@H](CC(=O)O)C(=O)N[C@@H](CCCCN)C(=O)N[C@@H](Cc3c[nH]c4ccccc34)C(=O)N[C@@H](C)C(=O)N[C@@H](CO)C(=O)N[C@@H](CC(C)C)C(=O)N[C@@H](Cc3c[nH]c4ccccc34)C(=O)N[C@@H](CC(N)=O)C(=O)N[C@@H](Cc3c[nH]c4ccccc34)C(=O)N[C@@H](Cc3ccccc3)C(=O)O)CS2)C(=O)N[C@@H](CO)C(=O)N[C@@H](CO)C(=O)N[C@@H](C)C(N)=O)N1)C(=O)N[C@@H](Cc1c[nH]c2ccccc12)C(=O)N[C@@H](CC(N)=O)C(=O)N[C@@H](Cc1c[nH]c2ccccc12)C(=O)N[C@@H](Cc1ccccc1)C(=O)O (stereo partly drawn) [Compound 2α-C13] | 6.37 | 6.51 | 6.54
CC(C)C[C@H](NC(=O)[C@H](CO)NC(=O)[C@H](C)NC(=O)[C@H](Cc1c[nH]c2ccccc12)NC(=O)[C@H](CCCCN)NC(=O)[C@H](CC(=O)O)NC(=O)[C@H](CC(C)C)NC(=O)[C@H](CCC(=O)O)NC(=O)[C@H](CC(C)C)NC(=O)[C@H](CC(C)C)NC(=O)[C@H](CCC(=O)O)NC(=O)[C@H](CCC(N)=O)NC(=O)[C@H](CCC(=O)O)NC(=O)[C@H](CC(N)=O)NC(=O)[C@H](CCCCN)NC(=O)[C@H](CCC(=O)O)NC(=O)[C@H](CCC(N)=O)NC(=O)[C@H](CCC(N)=O)NC(=O)[C@H](CC(N)=O)NC(=O)[C@H](CCC(N)=O)NC(=O)[C@@H]1CSC(C(=O)NCCCC[C@H](NC(=O)CCNC(=O)C2N[C@H](C(=O)N[C@@H](CCC(N)=O)C(=O)N[C@@H](CC(N)=O)C(=O)N[C@@H](CCC(N)=O)C(=O)N[C@@H](CCC(N)=O)C(=O)N[C@@H](CCC(=O)O)C(=O)N[C@@H](CCCCN)C(=O)N[C@@H](CC(N)=O)C(=O)N[C@@H](CCC(=O)O)C(=O)N[C@@H](CCC(N)=O)C(=O)N[C@@H](CCC(=O)O)C(=O)N[C@@H](CC(C)C)C(=O)N[C@@H](CC(C)C)C(=O)N[C@@H](CCC(=O)O)C(=O)N[C@@H](CC(C)C)C(=O)N[C@@H](CC(=O)O)C(=O)N[C@@H](CCCCN)C(=O)N[C@@H](Cc3c[nH]c4ccccc34)C(=O)N[C@@H](C)C(=O)N[C@@H](CO)C(=O)N[C@@H](CC(C)C)C(=O)N[C@@H](Cc3c[nH]c4ccccc34)C(=O)N[C@@H](CC(N)=O)C(=O)N[C@@H](Cc3c[nH]c4ccccc34)C(=O)N[C@@H](Cc3ccccc3)C(=O)O)CS2)C(=O)N[C@@H](CO)C(=O)N[C@@H](CO)C(=O)N[C@@H](C)C(N)=O)N1)C(=O)N[C@@H](Cc1c[nH]c2ccccc12)C(=O)N[C@@H](CC(N)=O)C(=O)N[C@@H](Cc1c[nH]c2ccccc12)C(=O)N[C@@H](Cc1ccccc1)C(=O)O (stereo partly drawn) [Compound 2α-C24] | 7.17 | 7.10 | 7.42
CC(C)C[C@H](NC(=O)[C@H](CO)NC(=O)[C@H](C)NC(=O)[C@H](Cc1c[nH]c2ccccc12)NC(=O)[C@H](CCCCN)NC(=O)[C@H](CC(=O)O)NC(=O)[C@H](CC(C)C)NC(=O)[C@H](CCC(=O)O)NC(=O)[C@H](CC(C)C)NC(=O)[C@@H]1CSC(C(=O)NCCCC[C@H](NC(=O)CCNC(=O)C2N[C@H](C(=O)N[C@@H](CC(C)C)C(=O)N[C@@H](CCC(=O)O)C(=O)N[C@@H](CC(C)C)C(=O)N[C@@H](CC(=O)O)C(=O)N[C@@H](CCCCN)C(=O)N[C@@H](Cc3c[nH]c4ccccc34)C(=O)N[C@@H](C)C(=O)N[C@@H](CO)C(=O)N[C@@H](CC(C)C)C(=O)N[C@@H](Cc3c[nH]c4ccccc34)C(=O)N[C@@H](CC(N)=O)C(=O)N[C@@H](Cc3c[nH]c4ccccc34)C(=O)N[C@@H](Cc3ccccc3)C(=O)O)CS2)C(=O)N[C@@H](CCCCNC(=O)CNC(=O)C2N[C@H](C(=O)N[C@@H](CC(C)C)C(=O)N[C@@H](CCC(=O)O)C(=O)N[C@@H](CC(C)C)C(=O)N[C@@H](CC(=O)O)C(=O)N[C@@H](CCCCN)C(=O)N[C@@H](Cc3c[nH]c4ccccc34)C(=O)N[C@@H](C)C(=O)N[C@@H](CO)C(=O)N[C@@H](CC(C)C)C(=O)N[C@@H](Cc3c[nH]c4ccccc34)C(=O)N[C@@H](CC(N)=O)C(=O)N[C@@H](Cc3c[nH]c4ccccc34)C(=O)N[C@@H](Cc3ccccc3)C(=O)O)CS2)C(=O)N[C@@H](CO)C(=O)N[C@@H](CO)C(=O)N[C@@H](C)C(N)=O)N1)C(=O)N[C@@H](Cc1c[nH]c2ccccc12)C(=O)N[C@@H](CC(N)=O)C(=O)N[C@@H](Cc1c[nH]c2ccccc12)C(=O)N[C@@H](Cc1ccccc1)C(=O)O (stereo partly drawn) [Compound 3α-C13] | 6.37 | 6.37 | 6.59
